From patent US9938281B2 (Merck Sharp & Dohme Corp., priority 2012, dated 2018)

How the values were obtained:
PI3K-alpha = target: T1, PI3K-alpha (Homo sapiens, UniProt P42336); assay: HTRF PI3K biochemical assay, alpha isoform; conditions: ratio PI3K-alpha IC50 value / PI3K-delta IC50 value
T1 construct: purchased Upstate; Millipore 14-602

PI3K-delta = target: T2, PI3K-delta (Homo sapiens, UniProt O00329); assay: HTRF PI3K biochemical assay, delta isoform; conditions: form screened (neutral or TFA salt) given, read-out: PI3Kdelta IC50
T2 construct: purchased Upstate; Millipore 14-604
T2 sequence (O00329 whole entry, canonical isoform): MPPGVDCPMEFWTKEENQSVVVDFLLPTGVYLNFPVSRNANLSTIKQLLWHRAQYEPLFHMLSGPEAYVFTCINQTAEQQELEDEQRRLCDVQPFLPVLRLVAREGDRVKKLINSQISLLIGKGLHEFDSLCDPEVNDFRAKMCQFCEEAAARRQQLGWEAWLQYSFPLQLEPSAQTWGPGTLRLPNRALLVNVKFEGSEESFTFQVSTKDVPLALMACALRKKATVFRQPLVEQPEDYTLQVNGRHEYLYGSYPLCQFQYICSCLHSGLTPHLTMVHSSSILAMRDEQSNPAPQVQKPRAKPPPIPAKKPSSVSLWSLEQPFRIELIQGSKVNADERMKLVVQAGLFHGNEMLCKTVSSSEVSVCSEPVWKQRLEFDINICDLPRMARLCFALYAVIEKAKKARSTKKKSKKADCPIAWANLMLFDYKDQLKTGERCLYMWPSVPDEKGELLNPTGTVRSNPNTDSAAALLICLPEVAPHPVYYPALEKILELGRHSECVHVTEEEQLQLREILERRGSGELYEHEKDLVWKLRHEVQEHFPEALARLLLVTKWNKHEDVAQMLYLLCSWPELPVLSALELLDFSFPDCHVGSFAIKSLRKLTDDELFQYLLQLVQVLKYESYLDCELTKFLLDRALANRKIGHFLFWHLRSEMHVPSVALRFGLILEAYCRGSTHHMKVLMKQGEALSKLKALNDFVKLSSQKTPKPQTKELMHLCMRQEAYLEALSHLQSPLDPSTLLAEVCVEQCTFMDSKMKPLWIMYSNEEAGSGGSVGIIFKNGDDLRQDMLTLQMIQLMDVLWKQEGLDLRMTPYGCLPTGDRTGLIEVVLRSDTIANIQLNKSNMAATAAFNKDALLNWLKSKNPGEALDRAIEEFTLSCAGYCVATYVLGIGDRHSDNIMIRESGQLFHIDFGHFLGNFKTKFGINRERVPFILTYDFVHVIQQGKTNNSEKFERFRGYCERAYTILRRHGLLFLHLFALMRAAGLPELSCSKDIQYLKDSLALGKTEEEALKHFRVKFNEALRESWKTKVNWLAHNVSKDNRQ
T2 sequence (P27986 whole entry partner, canonical isoform): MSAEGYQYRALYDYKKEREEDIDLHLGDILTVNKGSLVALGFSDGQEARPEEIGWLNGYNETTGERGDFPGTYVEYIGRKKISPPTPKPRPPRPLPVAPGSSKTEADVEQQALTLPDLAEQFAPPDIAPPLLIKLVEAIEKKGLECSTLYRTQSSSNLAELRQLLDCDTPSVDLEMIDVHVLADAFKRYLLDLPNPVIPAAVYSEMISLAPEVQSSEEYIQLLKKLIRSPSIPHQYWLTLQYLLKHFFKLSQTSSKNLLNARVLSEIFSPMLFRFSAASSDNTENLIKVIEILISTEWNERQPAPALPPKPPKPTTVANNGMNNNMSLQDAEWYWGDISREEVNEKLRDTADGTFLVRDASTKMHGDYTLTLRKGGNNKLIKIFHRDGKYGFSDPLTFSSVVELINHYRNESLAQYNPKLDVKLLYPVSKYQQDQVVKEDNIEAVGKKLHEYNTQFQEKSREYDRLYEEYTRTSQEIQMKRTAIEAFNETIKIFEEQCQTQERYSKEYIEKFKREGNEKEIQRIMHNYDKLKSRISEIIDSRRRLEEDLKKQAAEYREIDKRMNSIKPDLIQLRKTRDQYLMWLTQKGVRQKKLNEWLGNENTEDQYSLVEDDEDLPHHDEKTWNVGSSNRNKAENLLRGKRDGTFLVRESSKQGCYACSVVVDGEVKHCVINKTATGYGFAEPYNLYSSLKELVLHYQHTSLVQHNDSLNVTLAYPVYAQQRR
Source text: HTRF PI3K Biochemical Assay to Measure Intrinsic Potency of Compound Inhibitors
This assay was developed and further optimized from a kit produced by Upstate (Millipore catalog #33-047) and has been configured for HTS and SAR screening. Briefly, this procedure exploits the exquisite specificity and high affinity binding of enzyme reaction substrate phosphatidyl(3,4,5)triphosphate (PIP3) to the GRP1 pleckstrin homology (PH) domain to generate the signal. In the absence of PIP3, an HTRF (Homogeneous Time-Resolved Fluorescence energy transfer) complex is formed consisting of europium (Eu)-labeled anti-GST, GSTtagged GRP1-PH domain, biotin-PIP3 and streptavidin conjugated APC. The native PIP3 produced by PI3-Kinase activity disrupts in a competitive manner the biotin-PIP3 from the PH domain, resulting in the loss of energy transfer (HTRF complex) and a decrease in the signal. The format of this assay is the same for all 4 isoforms of PI3K; the differences lie in the concentration of enzyme used to achieve robust assay window. The alpha, beta, and delta assays are run at 0.5, 1, and 0.3 nM enzymes and the gamma assay is run at 5 nM enzyme. The ATP concentration is 100 uM in the alpha, beta, and delta assays and 50 uM ATP in the gamma assay. All reactions are run at 5 uM PIP2.
Compounds are serially diluted (3-fold in 100% DMSO) across a 384-well polypropylene source plated from column 3 to column 12 and column 13 to column 22, to yield 10 concentration dose response for each test compound. Columns 1, 2, 23 and 24 contain either only DMSO or pharmacological known control inhibitor.
The PI3-Kinase biochemical assay was optimized using the HTRF kit provided by Upstate (Millipore). The assay kit contains six reagents: 1) 4× Reaction Buffer; 2) native PIP2 (substrate); 3) Stop (EDTA); 4) Detection Mix A (Streptavidin-APC); 5) Detection Mix B (Eu-labeled Anti-GST plus GST-tagged PH-domain); 6) Detection Mix C.
PI3Kinase Reaction Buffer is prepared by dilution the stock 1:4 with de-ionized water. […] Enzyme addition and compound pre-incubation are initiated by the addition of 1.25 ul of PI3K (at twice its final concentration) in the 1× reaction buffer to all wells using a BioRaptor. Plates are incubated at room temperature for 15 minutes. Reactions are initiated by addition of 1.25 ul of 2× substrate solution (PIP2 and ATP in 1× reaction buffer) using BioRaptor. Plates are incubated in humidified chamber at room temperature for one hour. Reactions are quenched by addition of 0.625 uL of stop solution to all wells using the BioRaptor. The quenched reactions are then processed to detect product formation by adding 0.625 uL of Detection Solution to all wells using the BioRaptor (Detection mix C, Detection Mix A, and Detection Mix B combined together in an 18:1:1 ratio prepared 2 hours prior to use).
The loss of the HTRF signal is due to the displacement of biotinylated-PIP3 from the PH domain by the PI3K-dependent conversion of PIP2 to PIP3. This loss of signal is nonlinear with respect to both increasing product and time. This non-linear detection will impact accuracy of IC50 calculations; therefore, there is a need for a correction factor to obtain more accurate IC50 values. This correction is derived from a PIP3 standard curve run in a separate assay plate. All data were calculated using the ratio of acceptor (APC) to donor (Europium) fluorescence in each well of the assay plate. […] An IC50 was then calculated fitting the % inhibition data to the equation: % inhibition=min+(Max−min)/1+([inhibitor]/IC50)^n) where min is the % inhibition with inhibitor, max is the signal in DMSO control, and n is the Hill slope.

T1 sequence (P42336 whole entry, canonical isoform): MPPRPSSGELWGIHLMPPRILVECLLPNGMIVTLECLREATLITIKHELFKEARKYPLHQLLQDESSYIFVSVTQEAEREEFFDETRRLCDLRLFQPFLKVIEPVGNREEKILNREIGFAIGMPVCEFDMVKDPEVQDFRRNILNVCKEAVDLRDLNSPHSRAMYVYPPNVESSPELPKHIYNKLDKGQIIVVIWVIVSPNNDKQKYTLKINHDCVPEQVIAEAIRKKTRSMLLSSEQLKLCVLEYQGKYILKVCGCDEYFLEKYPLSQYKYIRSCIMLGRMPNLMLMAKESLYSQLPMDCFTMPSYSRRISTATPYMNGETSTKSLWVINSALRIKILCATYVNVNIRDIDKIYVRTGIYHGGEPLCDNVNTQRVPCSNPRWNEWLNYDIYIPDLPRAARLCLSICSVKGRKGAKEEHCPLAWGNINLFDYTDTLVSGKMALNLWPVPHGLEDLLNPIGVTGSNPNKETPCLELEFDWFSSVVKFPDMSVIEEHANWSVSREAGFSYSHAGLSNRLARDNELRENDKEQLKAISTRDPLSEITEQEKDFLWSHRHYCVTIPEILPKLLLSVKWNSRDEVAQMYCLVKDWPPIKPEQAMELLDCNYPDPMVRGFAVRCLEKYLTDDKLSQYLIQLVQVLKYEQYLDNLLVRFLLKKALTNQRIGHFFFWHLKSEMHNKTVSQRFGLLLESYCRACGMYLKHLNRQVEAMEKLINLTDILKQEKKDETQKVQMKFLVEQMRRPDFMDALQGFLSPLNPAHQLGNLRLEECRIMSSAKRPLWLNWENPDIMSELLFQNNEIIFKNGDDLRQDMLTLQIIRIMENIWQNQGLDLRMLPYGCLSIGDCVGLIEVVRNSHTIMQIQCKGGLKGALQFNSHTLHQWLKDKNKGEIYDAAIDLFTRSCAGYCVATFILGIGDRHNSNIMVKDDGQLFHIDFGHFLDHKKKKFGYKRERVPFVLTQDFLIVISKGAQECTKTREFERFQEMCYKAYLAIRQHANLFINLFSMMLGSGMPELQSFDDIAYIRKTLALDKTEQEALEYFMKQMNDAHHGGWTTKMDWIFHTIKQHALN
T1 sequence (P27986 whole entry partner, canonical isoform): as the sequence (P27986 whole entry partner, canonical isoform) above

Compound	Selectivity versus PI3Kalpha (PI3K-alpha)	IC50 (PI3K-delta) [nM]
CCn1c(-c2cnc(OC)c(F)c2)nc2c(N[C@H]3CCN(C(=O)c4cocn4)C3)ncnc21 [Compound 3A-1, 9-ethyl-8-(5-fluoro-6-methoxypyridin-3-yl)-N-[(3S)-1-(1,3-oxazol-4-ylcarbonyl)pyrrolidin-3-yl]-9H-purin-6-amine]	>10	1
CCn1c(-c2cnc(OC)c(F)c2)nc2c(N[C@H]3CCN(C(=O)c4cncn4C)C3)ncnc21 [Compound 3A-2, 9-ethyl-8-(5-fluoro-6-methoxypyridin-3-yl)-N-{(3S)-1-[(1-methyl-1H-imidazol-5-yl)carbonyl]pyrrolidin-3-yl}-9H-purin-6-amine]	>10	< 1
CCn1c(-c2ccc(OC)nc2)nc2c(N[C@H]3CCN(C(=O)C4CCOCC4)C3)ncnc21 [Compound 3A-3, 9-ethyl-8-(6-methoxypyridin-3-yl)-N-[(3S)-1-(tetrahydro-2H-pyran-4-ylcarbonyl)pyrrolidin-3-yl]-9H-purin-6-amine]	>10	< 1
CCn1c(-c2cnc(OC)c(C)c2)nc2c(N[C@H]3CCN(C(=O)C4CCOCC4)C3)ncnc21 [Compound 3A-4, 9-ethyl-8-(6-methoxy-5-methylpyridin-3-yl)-N-[(3S)-1-(tetrahydro-2H-pyran-4-ylcarbonyl)pyrrolidin-3-yl]-9H-purin-6-amine]	>10	< 1
CCn1c(-c2cnc(OC)c(C)c2)nc2c(N[C@H]3CCN(C(=O)C4CC(F)(F)C4)C3)ncnc21 [Compound 3A-5, N-{(3S)-1-[(3,3-difluorocyclobutyl)carbonyl]pyrrolidin-3-yl}-9-ethyl-8-(6-methoxy-5-methylpyridin-3-yl)-9H-purin-6-amine]	>10	< 1
CCn1c(-c2cnc(OC)c(C)c2)nc2c(N[C@H]3CCN(C(=O)c4cncn4C)C3)ncnc21 [Compound 3A-6, 9-ethyl-8-(6-methoxy-5-methylpyridin-3-yl)-N-{(3S)-1-[(1-methyl-1H-imidazol-5-yl)carbonyl]pyrrolidin-3-yl}-9H-purin-6-amine]	>10	< 1
CCn1c(-c2cnc(OC)c(F)c2)nc2c(N[C@H]3CCN(C(=O)C4CC(F)(F)C4)C3)ncnc21 [Compound 3A-7, N-{(3S)-1-[(3,3-difluorocyclobutyl)carbonyl]pyrrolidin-3-yl}-9-ethyl-8-(5-fluoro-6-methoxypyridin-3-yl)-9H-purin-6-amine]	>10	< 1
CCn1c(-c2ccc(OC)nc2)nc2c(N[C@H]3CCN(C(=O)C4CC(F)(F)C4)C3)ncnc21 [Compound 3A-8, N-{(3S)-1-[(3,3-difluorocyclobutyl)carbonyl]pyrrolidin-3-yl}-9-ethyl-8-(6-methoxypyridin-3-yl)-9H-purin-6-amine]	>10	< 1

Other lines, results leading:

Selectivity versus PI3Kalpha (PI3K-alpha)	IC50 (PI3K-delta) [nM]	Compound
>10	1.8	CCn1c(-c2cncc(Cl)c2)nc2c(N[C@H]3CCN(C(=O)C4CC4)C3)ncnc21 [Compound 3-38, 8-(5-chloropyridin-3-yl)-N-[(3S)-1-(cyclopropylcarbonyl)pyrrolidin-3-yl]-9-ethyl-9H-purin-6-amine]
>10	3.4	CCn1c(-c2cnc(CO)nc2)nc2c(N[C@H]3CCN(C(=O)C4CC4)C3)ncnc21 [Compound 3-39, [5-(6-{[(3S)-1-(cyclopropylcarbonyl)pyrrolidin-3-yl]amino}-9-ethyl-9H-purin-8-yl)pyrimidin-2-yl]methanol]
>10	< 1	CCn1c(-c2cnc(C)nc2)nc2c(N[C@H]3CCN(c4ccccn4)C3)ncnc21 [Compound 4-1, 9-ethyl-8-(2-methylpyrimidin-5-yl)-N-[(3S)-1-pyridin-2-ylpyrrolidin-3-yl]-9H-purin-6-amine]
>10	6.9	CCn1c(-c2cnc(C)nc2)nc2c(N[C@H]3CCN(c4ncccn4)C3)ncnc21 [Compound 4-2, 9-ethyl-8-(2-methylpyrimidin-5-yl)-N-[(3S)-1-pyrimidin-2-ylpyrrolidin-3-yl]-9H-purin-6-amine]
